# Test results reported in US12258328B2, “6-membered heteroaryl-containing aminopyridine compounds as EGFR inhibitors” (YUHAN CORPORATION, priority 2021, dated 2025).
# Read-outs that look alike come from different tables or passages of the source.
# How the values were obtained:
# [1] = target: EGFR wildtype (Homo sapiens, UniProt P00533); experiment: Biochemical EGFR kinase assay (Lance Ultra TR-FRET), wildtype
# Outline: (§1)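 Enzyme reactions lasted 1 hour at room temperature with test compounds between 0.003 and 10 μM, followed by 10 mM EDTA quench.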
# [2] = target: EGFR L858R/T790M/C797S (Homo sapiens, UniProt P00533, C797S/L858R/T790M); experiment: Biochemical EGFR kinase assay (Lance Ultra TR-FRET), triple mutant L858R/T790M/C797S
# Outline: as §1
# [3] = target: EGFR L858R/C797S (Homo sapiens, UniProt P00533, C797S/L858R); experiment: Biochemical EGFR kinase assay (Lance Ultra TR-FRET), double mutant L858R/C797S
# EGFR L858R/C797S, sequence (P00533 25-1210 C797S/L858R): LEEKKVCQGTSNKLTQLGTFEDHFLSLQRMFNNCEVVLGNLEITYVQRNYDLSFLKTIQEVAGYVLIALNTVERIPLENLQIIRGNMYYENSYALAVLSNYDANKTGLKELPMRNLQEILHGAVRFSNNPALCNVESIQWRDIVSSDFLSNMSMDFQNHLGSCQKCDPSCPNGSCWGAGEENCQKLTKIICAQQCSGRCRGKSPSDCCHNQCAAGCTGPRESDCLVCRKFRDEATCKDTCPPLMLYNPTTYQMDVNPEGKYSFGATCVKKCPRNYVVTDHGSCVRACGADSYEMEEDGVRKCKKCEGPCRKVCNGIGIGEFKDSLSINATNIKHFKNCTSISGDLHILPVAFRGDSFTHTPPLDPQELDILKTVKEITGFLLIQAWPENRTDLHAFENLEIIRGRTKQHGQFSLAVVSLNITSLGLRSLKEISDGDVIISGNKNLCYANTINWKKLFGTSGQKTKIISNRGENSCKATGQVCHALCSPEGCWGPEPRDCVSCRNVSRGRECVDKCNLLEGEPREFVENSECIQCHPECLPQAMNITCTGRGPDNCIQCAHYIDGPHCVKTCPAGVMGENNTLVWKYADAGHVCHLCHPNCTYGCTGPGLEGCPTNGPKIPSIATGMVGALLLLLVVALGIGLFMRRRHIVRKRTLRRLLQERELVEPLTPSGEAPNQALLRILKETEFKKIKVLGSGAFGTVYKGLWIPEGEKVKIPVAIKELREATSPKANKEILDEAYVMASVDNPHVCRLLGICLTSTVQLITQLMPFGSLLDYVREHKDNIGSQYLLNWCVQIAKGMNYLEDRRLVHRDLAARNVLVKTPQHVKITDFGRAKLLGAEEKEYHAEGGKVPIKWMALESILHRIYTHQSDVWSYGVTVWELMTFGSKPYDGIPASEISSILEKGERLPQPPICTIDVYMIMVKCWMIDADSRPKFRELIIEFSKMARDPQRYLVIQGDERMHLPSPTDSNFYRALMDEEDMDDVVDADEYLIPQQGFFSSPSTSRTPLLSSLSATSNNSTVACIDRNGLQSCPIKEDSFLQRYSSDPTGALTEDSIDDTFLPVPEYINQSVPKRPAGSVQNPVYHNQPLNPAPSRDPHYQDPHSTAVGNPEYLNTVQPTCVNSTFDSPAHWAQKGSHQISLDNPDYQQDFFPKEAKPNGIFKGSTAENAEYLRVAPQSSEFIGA
# Outline: as §1
# [4] = target: EGFR del19/T790M/C797S (Homo sapiens, UniProt P00533, C797S/DEL746-750/T790M); experiment: Biochemical EGFR kinase assay (Lance Ultra TR-FRET), triple mutant del19/T790M/C797S
# EGFR del19/T790M/C797S, sequence (P00533 with tags, fused parts or gaps DEL746-750/T790M/C797S): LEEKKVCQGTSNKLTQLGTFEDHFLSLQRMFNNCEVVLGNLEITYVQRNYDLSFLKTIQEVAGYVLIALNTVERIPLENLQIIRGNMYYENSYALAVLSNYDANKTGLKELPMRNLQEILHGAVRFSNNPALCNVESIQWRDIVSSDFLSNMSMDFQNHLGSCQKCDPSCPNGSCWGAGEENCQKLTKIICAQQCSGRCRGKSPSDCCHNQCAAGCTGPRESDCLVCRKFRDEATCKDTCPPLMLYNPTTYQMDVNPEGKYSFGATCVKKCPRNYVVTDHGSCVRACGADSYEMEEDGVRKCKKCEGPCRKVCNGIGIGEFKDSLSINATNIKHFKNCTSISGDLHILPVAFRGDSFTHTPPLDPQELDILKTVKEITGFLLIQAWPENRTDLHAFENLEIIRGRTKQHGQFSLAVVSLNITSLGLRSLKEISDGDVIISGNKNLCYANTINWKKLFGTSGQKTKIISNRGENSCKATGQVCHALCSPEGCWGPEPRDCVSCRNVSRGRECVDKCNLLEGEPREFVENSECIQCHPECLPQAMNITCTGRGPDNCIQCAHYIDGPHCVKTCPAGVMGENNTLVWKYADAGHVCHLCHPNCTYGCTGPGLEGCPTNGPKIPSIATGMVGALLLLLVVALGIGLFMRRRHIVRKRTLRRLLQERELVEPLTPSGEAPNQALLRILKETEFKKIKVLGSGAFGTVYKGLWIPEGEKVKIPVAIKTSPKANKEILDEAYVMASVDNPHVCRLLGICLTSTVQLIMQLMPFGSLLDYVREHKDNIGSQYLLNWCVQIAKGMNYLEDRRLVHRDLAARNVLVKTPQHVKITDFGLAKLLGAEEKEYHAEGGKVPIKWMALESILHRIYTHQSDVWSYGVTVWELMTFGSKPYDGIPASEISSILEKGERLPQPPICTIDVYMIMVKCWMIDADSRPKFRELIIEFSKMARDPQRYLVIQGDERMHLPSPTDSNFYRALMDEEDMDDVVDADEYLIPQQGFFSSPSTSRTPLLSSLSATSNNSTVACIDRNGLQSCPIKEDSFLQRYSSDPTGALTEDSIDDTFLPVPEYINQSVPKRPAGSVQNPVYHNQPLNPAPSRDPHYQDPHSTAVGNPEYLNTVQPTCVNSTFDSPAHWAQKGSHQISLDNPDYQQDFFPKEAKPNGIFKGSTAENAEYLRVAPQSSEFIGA
# Outline: as §1
# [5] = target: EGFR del19/C797S (Homo sapiens, UniProt P00533, C797S/DEL746-750); experiment: Biochemical EGFR kinase assay (Lance Ultra TR-FRET), double mutant del19/C797S
# EGFR del19/C797S, sequence (P00533 with tags, fused parts or gaps DEL746-750/C797S): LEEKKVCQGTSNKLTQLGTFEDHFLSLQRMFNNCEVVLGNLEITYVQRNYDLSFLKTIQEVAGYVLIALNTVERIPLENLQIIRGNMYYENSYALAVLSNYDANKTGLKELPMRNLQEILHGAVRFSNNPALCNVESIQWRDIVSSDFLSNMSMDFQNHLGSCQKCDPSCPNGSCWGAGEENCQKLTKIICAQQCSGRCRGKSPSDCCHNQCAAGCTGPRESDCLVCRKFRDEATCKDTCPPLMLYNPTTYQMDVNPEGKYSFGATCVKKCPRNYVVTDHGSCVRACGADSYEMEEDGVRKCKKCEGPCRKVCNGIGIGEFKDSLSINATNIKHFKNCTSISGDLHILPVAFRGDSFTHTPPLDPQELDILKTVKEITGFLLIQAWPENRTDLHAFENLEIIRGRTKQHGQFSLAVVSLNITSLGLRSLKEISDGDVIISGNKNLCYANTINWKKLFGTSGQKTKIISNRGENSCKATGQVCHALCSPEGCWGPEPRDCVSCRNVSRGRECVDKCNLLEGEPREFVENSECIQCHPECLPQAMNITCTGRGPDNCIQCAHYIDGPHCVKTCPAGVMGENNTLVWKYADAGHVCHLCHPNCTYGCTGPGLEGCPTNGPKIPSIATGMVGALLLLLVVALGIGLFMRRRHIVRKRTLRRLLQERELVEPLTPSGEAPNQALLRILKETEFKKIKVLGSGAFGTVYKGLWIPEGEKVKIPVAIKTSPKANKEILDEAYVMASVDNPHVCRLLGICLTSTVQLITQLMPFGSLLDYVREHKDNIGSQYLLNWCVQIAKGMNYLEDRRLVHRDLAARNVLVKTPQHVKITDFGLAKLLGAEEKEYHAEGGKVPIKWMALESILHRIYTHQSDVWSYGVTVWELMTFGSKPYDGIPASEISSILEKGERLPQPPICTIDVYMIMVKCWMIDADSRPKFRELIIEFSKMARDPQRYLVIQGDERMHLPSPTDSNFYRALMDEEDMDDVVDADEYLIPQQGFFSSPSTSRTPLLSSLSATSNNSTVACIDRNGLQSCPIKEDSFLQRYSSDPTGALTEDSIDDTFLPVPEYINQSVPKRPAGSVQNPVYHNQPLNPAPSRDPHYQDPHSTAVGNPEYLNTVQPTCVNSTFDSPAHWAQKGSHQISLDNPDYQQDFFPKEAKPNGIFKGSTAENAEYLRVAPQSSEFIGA
# Outline: as §1
# [6] = ATP at Km, read-out: IC50 WT, Km ATP
# [7] = ATP at Km, read-out: IC50 L858R/T790M/C797S, Km ATP
# [8] = IC50 L858R/T790M/C797S, 100 μM ATP
# [9] = ATP at Km, read-out: IC50 L858R/C797S, Km ATP
# [10] = ATP at Km, read-out: IC50 del19/T790M/C797S, Km ATP
# [11] = IC50 del19/T790M/C797S, 100 μM ATP
# [12] = ATP at Km, read-out: IC50 del19/C797S, Km ATP
# EGFR wildtype, sequence (P00533 25-1210): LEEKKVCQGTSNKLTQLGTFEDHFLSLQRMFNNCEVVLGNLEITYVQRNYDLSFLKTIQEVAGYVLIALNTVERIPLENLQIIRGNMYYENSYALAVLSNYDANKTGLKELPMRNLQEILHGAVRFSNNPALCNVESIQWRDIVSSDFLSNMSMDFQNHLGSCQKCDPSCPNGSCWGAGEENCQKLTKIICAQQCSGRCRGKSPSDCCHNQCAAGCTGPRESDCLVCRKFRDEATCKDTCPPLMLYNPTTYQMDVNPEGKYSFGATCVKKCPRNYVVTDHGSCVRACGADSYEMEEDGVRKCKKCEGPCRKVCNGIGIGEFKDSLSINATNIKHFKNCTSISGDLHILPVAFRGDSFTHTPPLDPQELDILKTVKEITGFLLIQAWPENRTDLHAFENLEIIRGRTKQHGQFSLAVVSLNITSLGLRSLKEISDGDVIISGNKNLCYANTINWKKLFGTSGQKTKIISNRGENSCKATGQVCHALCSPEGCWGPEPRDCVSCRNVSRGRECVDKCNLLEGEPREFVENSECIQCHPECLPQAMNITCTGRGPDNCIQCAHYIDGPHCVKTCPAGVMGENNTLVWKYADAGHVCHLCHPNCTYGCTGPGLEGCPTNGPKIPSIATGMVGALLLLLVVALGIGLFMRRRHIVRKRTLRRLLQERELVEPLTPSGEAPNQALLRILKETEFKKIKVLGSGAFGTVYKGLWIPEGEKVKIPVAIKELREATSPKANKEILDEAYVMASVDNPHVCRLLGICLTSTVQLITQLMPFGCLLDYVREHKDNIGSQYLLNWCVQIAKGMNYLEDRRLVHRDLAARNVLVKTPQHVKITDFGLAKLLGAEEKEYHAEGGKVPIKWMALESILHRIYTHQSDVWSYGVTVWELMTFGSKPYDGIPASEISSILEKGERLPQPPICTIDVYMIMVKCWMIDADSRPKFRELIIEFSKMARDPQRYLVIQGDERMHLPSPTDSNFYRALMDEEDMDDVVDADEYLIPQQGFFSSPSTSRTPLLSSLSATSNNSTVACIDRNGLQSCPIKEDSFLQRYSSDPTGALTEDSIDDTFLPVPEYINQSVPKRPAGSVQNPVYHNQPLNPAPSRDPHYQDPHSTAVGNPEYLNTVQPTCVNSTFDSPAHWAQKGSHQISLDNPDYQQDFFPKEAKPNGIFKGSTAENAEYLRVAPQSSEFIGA
SMILES,"IC50 [1, 6]","IC50 ([1]; IC50 WT, 100 μM ATP)","IC50 [2, 7]","IC50 [2, 8]","IC50 [3, 9]","IC50 ([3]; IC50 L858R/C797S, 100 μM ATP)","IC50 [4, 10]","IC50 [4, 11]","IC50 [5, 12]","IC50 ([5]; IC50 del19/C797S, 100 μM ATP)","IC50 ([1]; IC50 WT (nM) 100 μM ATP, 100 μM ATP)","IC50 ([1]; Km ATP, read-out: IC50 WT (nM) Km ATP)","IC50 ([2]; IC50 L858R/T790M/C797S (nM) 100 μM ATP, 100 μM ATP)","IC50 ([2]; Km ATP, read-out: IC50 L858R/T790M/C797S (nM) Km ATP)","IC50 ([3]; IC50 L858R/C797S (nM) 100 μM ATP, 100 μM ATP)","IC50 ([3]; Km ATP, read-out: IC50 L858R/C797S (nM) Km ATP)","IC50 ([4]; IC50 del19/T790M/C797S (nM) 100 μM ATP, 100 μM ATP)","IC50 ([4]; Km ATP, read-out: IC50 del19/T790M/C797S (nM) Km ATP)","IC50 ([5]; IC50 del19/C797S (nM) 100 μM ATP, 100 μM ATP)","IC50 ([5]; Km ATP, read-out: IC50 del19/C797S (nM) Km ATP)"
"C[C@]1(O)CC[C@@H](Nc2cc(Nc3ccnc(-c4cnn(S(=O)(=O)C5CC5)c4)n3)ncc2-c2ccc(OCCN3CCC3)cn2)CC1 [Example 290, (1s,4s)-4-((5-(2-(Azetidin-1-yl)ethoxy)-6′-((2-(1-(cyclopropylsulfonyl)-1H-pyrazol-4-yl)pyrimidin-4-yl)amino)-[2,3′-bipyridin]-4′-yl)amino)-1-methylcyclohexan-1-ol]",0.5 nM,118 nM,0.1 nM,0.2 nM,0.1 nM,0.6 nM,0.4 nM,0.4 nM,0.2 nM,0.3 nM,,,,,,,,,,
"COC(c1ccc(-c2cnc(Nc3ccnc(-c4cnn(S(=O)(=O)C5CC5)c4)n3)cc2NC2CCC(C)(O)CC2)nc1)C(F)(F)F (stereo not shown) [Example 260, (1s,4s)-4-((6′-((2-(1-(Cyclopropylsulfonyl)-1H-pyrazol-4-yl)pyrimidin-4-yl)amino)-5-(2,2,2-trifluoro-1-methoxyethyl)-[2,3′-bipyridin]-4′-yl)amino)-1-methylcyclohexan-1-ol]",7.8 nM,,4.1 nM,,8.8 nM,,6.9 nM,,10.7 nM,,,,,,,,,,,
"O=S(=O)(C1CC1)n1cc(-c2nccc(Nc3cc(N[C@H]4CC[C@@H](CO)CC4)c(-c4ccc(CC(F)(F)F)cn4)cn3)n2)cn1 [Example 219, ((1s,4s)-4-((6′-((2-(1-(Cyclopropylsulfonyl)-1H-pyrazol-4-yl)pyrimidin-4-yl)amino)-5-(2,2,2-trifluoroethyl)-[2,3′-bipyridin]-4′-yl)amino)cyclohexyl)methanol]",12.1 nM,2670 nM,,2.9 nM,2.9 nM,27.4 nM,3.2 nM,1.8 nM,4.9 nM,8.7 nM,,,,,,,,,,
"CC(C)(O)c1ccc(-c2cnc(Nc3ccnc(-c4cnn(S(=O)(=O)C5CC5)c4)n3)cc2NC2CCCN(CCF)C2)nc1 (stereo not shown) [Example 177, 2-(6′-((2-(1-(Cyclopropylsulfonyl)-1H-pyrazol-4-yl)pyrimidin-4-yl)amino)-4′-((1-(2-fluoroethyl)piperidin-3-yl)amino)-[2,3′-bipyridin]-5-yl)propan-2-ol]",40.5 nM,,1.9 nM,,9 nM,,0.9 nM,,3.7 nM,,,,,,,,,,,
"Cc1cnc(-c2cnc(Nc3ccnc(-c4cnn(S(=O)(=O)C5CC5)c4)n3)cc2N[C@H]2CC[C@@](C)(O)CC2)cn1 [Example 59, (1s,4s)-4-((2-((2-(1-(Cyclopropylsulfonyl)-1H-pyrazol-4-yl)pyrimidin-4-yl)amino)-5-(5-methylpyrazin-2-yl)pyridin-4-yl)amino)-1-methylcyclohexan-1-ol]",,,,,,,,,,,> 10000 nM,14.8 nM,0.7 nM,0.5 nM,7.4 nM,1 nM,0.4 nM,0.3 nM,0.9 nM,0.6 nM
"CC(F)(F)c1ccc(-c2cnc(Nc3ccnc(-c4cnn(S(=O)(=O)C5CC5)c4)n3)cc2N[C@H]2CC[C@@](C)(O)CC2)nc1 [Example 292, (1s,4s)-4-((6′-((2-(1-(Cyclopropylsulfonyl)-1H-pyrazol-4-yl)pyrimidin-4-yl)amino)-5-(1,1-difluoroethyl)-[2,3′-bipyridin]-4′-yl)amino)-1-methylcyclohexan-1-ol]",8.9 nM,5170 nM,0.6 nM,1.1 nM,4.4 nM,19.1 nM,0.6 nM,2.6 nM,1.4 nM,9.8 nM,,,,,,,,,,
